Results reported in US20260347435A1, “y-SECRETASE INHIBITOR, Aß-PEPTIDE PRODUCTION INHIBITOR, AND PHARMACEUTICAL” (priority 2022, published 2026).

What was measured:
[1] = biological target: T1, human γ-secretase complex, Notch1 as substrate (Homo sapiens, UniProt P49768); test: β-galactosidase assay of γ-secretase-expressing yeast with related-art GSI, Notch substrate; type: cell-based; settings: yeast (FIG. 7)
T1 construct: substrate mouse Notch1(1704-1755)-Gal4, β-galactosidase reporter
Description: The yeast expressing the γ-secretase complex, the substrate Notch-Gal4, and the three-finger toxin produced in the foregoing was inoculated in 15 mL of a SD-LWU medium, and the resultant was shake-cultured (180 rpm) at 30 °C until its turbidity became from 0.8 to 1.0. After that, a 1.5 mL aliquot of the cultured product was dispensed and centrifuged (15,000 rpm, 3 minutes, room temperature), and cells were recovered. The cells were washed with 1 mL of cooling water, and were then suspended in 30 μL of a Lysis buffer (20 mM Tris-HCl, pH: 8.0, 10 mM MgCl2, 50 mM KCl, 1 mM EDTA, 5% glycerol, and 1 mM DTT), followed by the addition of an appropriate amount of acid-treated glass beads (425 μm to 600 μm, Sigma-Aldrich Co. LLC) thereto. After that, the mixture was stirred with a vortex mixer so that the cells were crushed. The crushed liquid was centrifuged (15,000 rpm, 10 minutes, 4 °C) to provide a lysate. […] After that, the absorbance (A420) of nitrophenol produced in the reaction liquid at 420 nm was measured. Further, the protein concentration of the lysate was determined by a Bradford method (Bio-Rad Laboratories, Inc.), and β-galactosidase activity was calculated: β-galactosidase unit/mg protein=1,000×A420/{time (min)×protein concentration (mg/μL)×liquid amount (μL)}.

[2] = biological target: T2, human γ-secretase complex, APP as substrate (Homo sapiens, UniProt P49768); test: β-galactosidase assay of γ-secretase-expressing yeast with related-art GSI, APP substrate; type: cell-based
T2 construct: substrate APPC55-Gal4, β-galactosidase reporter
Description: The yeast expressing the γ-secretase complex, the substrate APPC55-Gal4, and the three-finger toxin produced in the foregoing was inoculated in 1.5 mL of a SD-LWU medium, and the resultant was shake-cultured (180 rpm) at 30 °C until its turbidity became from 0.8 to 1.0. After that, the cultured product was centrifuged (15,000 rpm, 3 minutes, room temperature), and cells were recovered. The cells were washed with 1 mL of cooling water, and were then suspended in 30 μL of a Lysis buffer (20 mM Tris-HCl, pH: 8.0, 10 mM MgCl2, 50 mM KCl, 1 mM EDTA, 5% glycerol, and 1 mM DTT), followed by the addition of an appropriate amount of acid-treated glass beads (425 μm to 600 μm, Sigma-Aldrich Co. LLC) thereto. After that, the mixture was stirred with a vortex mixer so that the cells were crushed. The crushed liquid was centrifuged (15,000 rpm, 10 minutes, 4 °C) to provide a lysate. 80 Microliters of 4 mg/ml ortho-nitrophenyl-β-galactoside (ONPG) was added to the mixed liquid of 10 μL of the lysate and 400 μL of a Z buffer (60 mM Na2HPO4, 40 mM NaH2PO4-2H2O, 10 mM KCl, 1 mM MgSO4-7H2O, and 0.27% 2-mercaptoethanol) to start a reaction. […] After that, the absorbance (A420) of nitrophenol produced in the reaction liquid at 420 nm was measured. Further, the protein concentration of the lysate was determined by a Bradford method (Bio-Rad Laboratories, Inc.), and β-galactosidase activity was calculated [β-galactosidase unit/mg protein=1,000×A420/{time (min)×protein concentration (mg/μL)×liquid amount (μL)}].

γ-secretase [3] = settings: phase III clinical trials; trials stopped; cited from earlier work
γ-secretase [4] = settings: verification experiment; pseudo-inhibitor; cited from earlier work

## C[C@H](NC(=O)Cc1cc(F)cc(F)c1)C(=O)N[C@H](C(=O)OC(C)(C)C)c1ccccc1 [DAPT]
[1]
  suppression of the cleavage of the Notch: suppressed the cleavage of each of the APP and the Notch
[2]; yeast (FIG. 7)
  suppression of the cleavage of the APP: suppressed the cleavage of each of the APP and the Notch

## NC(=O)[C@@H](CCC(F)(F)F)N(Cc1ccc(-c2ncon2)cc1F)S(=O)(=O)c1ccc(Cl)cc1 [avagacestat]
γ-secretase [3]
  serious side effects and deterioration of a cognitive function: serious side effects and the deterioration of a cognitive function were observed

## O=S(=O)(N[C@H](CO)C(C(F)(F)F)C(F)(F)F)c1ccc(Cl)s1 [begacestat]
[2]; 1 μM, 3 μM, and 10 μM, wild-type yeast and pdr1Δpdr3Δ strain, vs mock with dimethyl sulfoxide (FIG. 7)
  suppression of the cleavage of the APP versus the cleavage of the Notch: the suppression of the cleavage of the APP was stronger than the suppression of the cleavage of the Notch
[2]; yeast, APP versus Notch cleavage (FIG. 7)
  APP-specific cleavage-suppressing effect: APP-specific inhibition by begacestat was observed

## CC(C)[C@H](O)C(=O)N[C@@H](C)C(=O)N[C@@H]1C(=O)N(C)CCc2ccccc21 [semagacestat]
γ-secretase [4]
  discharge of a decomposition product to the outside of a cell: inhibits the discharge of a decomposition product to the outside of a cell
  inhibition of Aβ production: does not inhibit Aβ production
γ-secretase [3]
  serious side effects and deterioration of a cognitive function: serious side effects and the deterioration of a cognitive function were observed
